# Laboratory results taken from ChEMBL document CHEMBL2384989, “Abietane diterpenoids and a sesquiterpene pyridine alkaloid from Euonymus lutchuensis” (J Nat Prod, 2013).
# Key:
# Type in all cases: functional, cell-based
# [1] = system: HL-60; assay: Cytotoxicity against human HL60 cells after 48 hrs by MTT assay; details: HL-60, 48 h
# [2] = system: P388; assay: Cytotoxicity against mouse P388 cells after 48 hrs by MTT assay; details: P388, 48 h
# [3] = system: HCT-116; assay: Cytotoxicity against human HCT116 cells after 48 hrs by MTT assay; details: HCT-116, 48 h
SMILES,IC50 [1],IC50 [2],IC50 [3],IC50 ([1]; read-out: IC50),IC50 ([2]; read-out: IC50),IC50 ([3]; read-out: IC50)
CC(CO)c1ccc2c(c1)CC[C@H]1C(C)(C)C(=O)CC[C@]21C (stereo partly specified),> 5 µg/mL,> 5 µg/mL,> 5 µg/mL,,,
CC(CO)c1cc2c(cc1O)[C@@]1(C)CCC(=O)C(C)(C)[C@@H]1CC2 (stereo partly specified),,,,< 5 µg/mL,< 5 µg/mL,< 5 µg/mL
CC(O)c1ccc2c(c1)CC[C@H]1C(C)(C)C(=O)CC[C@]21C (stereo partly specified),> 5 µg/mL,> 5 µg/mL,> 5 µg/mL,,,
CC(CO)c1ccc2c(c1)CC[C@H]1C(C)(C)[C@@H](O)C(=O)C[C@]21C (stereo partly specified),> 5 µg/mL,> 5 µg/mL,> 5 µg/mL,,,
CC(C)c1cc2c(cc1O)C[C@@]13CCCC(C)(C)[C@@H]1C[C@@H]2O3,> 5 µg/mL,> 5 µg/mL,> 5 µg/mL,,,
CC(=O)OC[C@]12[C@H](OC(C)=O)[C@H](OC(C)=O)[C@@H]3[C@@H](O)[C@@]14OC3(C)COC(=O)c1cccnc1[C@H](C)[C@@H](C)C(=O)O[C@H]([C@H](O)[C@@H]2OC(=O)c1ccccc1)C4(C)O (stereo partly specified) [EUOLUCHUMINE],> 5 µg/mL,> 5 µg/mL,> 5 µg/mL,,,
CC(=O)O[C@H]1C(=O)[C@@]2(C)[C@H]([C@H](OC(=O)c3ccccc3)[C@]3(O)C[C@H](OC(=O)[C@H](O)[C@@H](NC(=O)c4ccccc4)c4ccccc4)C(C)=C1C3(C)C)[C@]1(OC(C)=O)CO[C@@H]1C[C@@H]2O [PACLITAXEL],,,,0.005 µg/mL,0.2 µg/mL,0.045 µg/mL
